According to patent US7745446B2, “Pyrazolo[1,5-c]pyrimidines” (Bayer Schering Pharma Aktiengesellschaft, priority 2004, dated 2010):
Like-named read-outs stand apart in the source and are kept apart here.

Legend:
MCF7 cells [1] = test system: MCF7 cells
Method: (§1) The anti-proliferative activity of the compounds as described herein, is evaluated using MCF7 and MDA-MB-468 (ATCC HTB-22 and HTB-132) cell lines and the Alamar Blue (Resazurin) cell viability assay (O'Brien et al. Eur J Biochem 267, 5421-5426, 2000). Resazurin is reduced to the fluorescent resorufin by cellular dehydrogenase activity, correlating with viable, proliferating cells. Test compounds are dissolved as 10 mM solutions in DMSO and subsequently diluted. MCF7 or MDA-MB-434 cells were seeded into 96 well flat bottom plates at a density of 10000 cells/well (MCF7) or 5000 cells/well (MDA-MB-468) in a volume of 200 μl/well. 24 hours after seeding, 1 μl each of the compound dilutions are added into each well of the 96 well plates. Each compound dilution is tested as at least as duplicates. Wells containing untreated control cells were filled with 200 μl DMEM containing 0.5% v:v DMSO. The cells are then incubated with the substances for 48 hours at 37° C. in a humidified atmosphere containing 5% carbon dioxide. To determine cell viability, 20 μl of a Resazurin solution (Sigma; 90 mg/l) are added. After 4 hours incubation at 37° C. the fluorescence is measured at an extinction of 544 nm and an emission of 590 nm (Wallac Victor2; Perkin Elmer, USA). For the calculation of the cell viability the emission value from untreated cells is set as 100% viability and the emission rates of treated cells are set in relation to the values of untreated cells. Viabilities are expressed as % values. The corresponding IC50 values of the compounds for cytotoxic activity are determined from the concentration-effect curves by means of non-linear regression. The analysis of the data is performed using a biostatistical program (GraphPad Prism, USA).

MDA-MB-468 cells [2] = test system: MDA-MB-468 cells
PKA = molecular target: T1, PKA (Homo sapiens, UniProt P17612); test: Biochemical PKA assay (flashplate); settings: 100 nM ATP; read-out: PKA inhibition: −log IC50 (converted)
T1 construct: His; purchased PanVera, USA #R3791; host or cells: E. coli
Method: For the biochemical PKA assay the catalytic subunit of PKA is expressed in E. coli as a His-tagged human recombinant protein and purified accordingly (PanVera, USA; #R3791).
In order to study the kinase inhibition activity of the compounds according to the invention, a flashplate-based assay has been developed for the serine/threonine kinase, PKA. The assay is run in 96 well plates by incubating 1 ng/well His-PKA (PanVera, USA; #R3791), 0.5 μM/well PKA peptide (#12-394; Upstate, USA) as substrate, 10 μl of compound of invention (test compounds were dissolved as 10 mM solutions in dimethylsulfoxide (DMSO) and subsequently diluted) and 100 nM ATP (including ^33P-ATP) in 100 μl of reaction buffer ([…], pH7,5; 3 mM MgCl2; 3 mM MnCl2; 3 μM Na-Orthovanadat; 1 mM DTT) for 80 minutes at 22° C. The reactions are stopped by adding 100 μl stopping buffer (2% H3PO4 for 5 minutes) and are washed 3 times by using washing buffer (200 μl 1×PBS). Relying on the incorporation of ^33P into the peptide substrate, the detection is based on the adhesion of the phosphorylated peptide to the surface of scintillator-coated Flash plates (Perkin Elmer, USA; #SMP-103). This phosphorylation is measured by counting the plate for 60 sec. using a plate reader (Wallac Microbeta; Perkin Elmer, USA). By using this method the IC50 of the PKA inhibition is determined.

MCF7 cells [3] = test: Cellular proliferation/cytotoxicity assay (Alamar Blue), MCF7; settings: Homo sapiens, MCF7, 48 h, read-out: Anti-proliferative/cytotoxic activity: IC50 MCF7
Method: as §1

[4] = molecular target: T2, full-length Akt1 (inactive) (Homo sapiens, UniProt P31749); test: Biochemical Akt1 assay (full-length Akt1 inactive, PDK1-dependent activation, IMAP); settings: PDK1 and PIP3 vesicles, 50 μM ATP; read-out: Inhibition of Akt1 activation (full-length Akt1, inactive): IC50
T2 construct: recombinant full-length human Akt1 a containing N-terminal His6 tag; His6 (N); purchased Upstate, UK #14-279; host or cells: baculovirus infected Sf21 insect cells
Method: The enzyme is purified using Ni2+/NTA-agarose (Upstate, UK; #14-279).
The enzyme is purified using Ni2+/NTA-agarose.
PDK1-dependent activation and subsequent enzymatic activity of Akt1: Activity of purified human Akt1 is routinely measured in an assay in which the enzyme is first activated by PDK1 in the presence of phosphatidylinositol-3,4,5-triphosphate (PIP3). Once activated, Akt1-dependent phosphorylation of a fluorescence labelled peptide substrate is measured by fluorescence polarisation using the IMAP technology (Molecular Devices).
The phospholipids are prepared as follows: 5 mg DOPC/DOPS are solved in 200 μl 10 mM Tris (pH 7.4) and 300 μg PIP3 are resuspended in 950 μl 10 mM Tris (pH 7.4) by pipetting. 950 μl solved PIP3 are mixed with 50 μl solved DOPC/DOPS and incubated for 2 h at a temperature below 20° C. Then the mixture is subjected to sonification for 30 min. at max. power until a translucent phopholipid vesicle preparation is obtained. Aliquots of the vesicle suspension are frozen at -80° C. until needed, likewise the solved DOPC/DOPS.
Assays are performed in 384-well plates. Incubations are carried out for 60 min. at room temperature. The reaction buffer mixture contained in a final volume of 25 μl: 10 mM Tris pH 7,4, 10 mM MgCl2. 1 mM DTT, and 0.1 mg/ml BSA. In contrast the activation buffer contained: 50 ng/well Akt1, 20 ng/well PDK1, 1.25 μM peptide substrat, 50 μM ATP, and phospholipid vesicles (1:20). Test compounds are added from stock solutions in DMSO before activation of Akt1 by PDK1. After the incubation the beads (IMAP binding reagent; Molecular Devices; 1:167) are added and the fluorescence polarization is measured (excitation 485 nm, emission 530 nm).

MDA-MB-468 cells [5] = test: Cellular proliferation/cytotoxicity assay (Alamar Blue), MDA-MB-468; settings: Homo sapiens, MDA-MB-468, 48 h, read-out: Anti-proliferative/cytotoxic activity: IC50 MDA468
GST-ΔPH-Akt1 = molecular target: T3, GST-ΔPH-Akt1 (Homo sapiens, UniProt P31749); test: Biochemical ΔPH Akt1 assay (flashplate, 33P incorporation into histone 2B); settings: 100 nM ATP, histone 2B substrate; read-out: ΔPHAkt1 inhibition: IC50
T3 construct: named GST-deltaPH-Akt1; 107-480aa; cloned in the pAcGl vector; GST (N); made in house; host or cells: SF9 insect cells (baculovirus vector pAcG1), co-expressed with PDK1
How it was run: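 The enzyme was GST-fused human Akt1 lacking the PH domain (aa 107–480), co-expressed with PDK1 in Sf9 cells, at 100 ng/well, with 100 ng/well histone 2B substrate and 100 nM ATP including 33P-ATP. 33P incorporation was counted on scintillant-coated flashplates.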

[6] = molecular target: T4, full-length Akt1 (active) (Homo sapiens, UniProt P31749); test: Biochemical Akt1 assay (full-length Akt1 active, flashplate, Crosstide); settings: 100 nM ATP, Crosstide substrate; read-out: Akt1 inhibition (full-length Akt1, active): IC50
T4 construct: recombinant full-length human Akt1, containing N-terminal His6 tag; His6 (N); GST (N); purchased Upstate, UK #14-276; host or cells: baculovirus infected Sf21 insect cells
Description: For the biochemical Akt1 assay recombinant full-length human Akt1, containing N-terminal His6 tag is cloned and expressed in baculovirus infected Sf21 insect cells. Akt1 is activated with GST-MAPKAP-K2 and PDK1, and repurified on Ni2+/NTA-agrose and glutathioneagarose (Upstate, UK; #14-276).
In order to study the inhibition of Akt1 (full-length version) according to the invention, a flashplate-based assay has been developed.
The full-length Akt1 assay is a biochemical assay using Akt1 N-terminally fused to GST and co-expressed with PDKI in insect cells. The Akt1 assay is run in 96 well plates by incubating 500 ng/well GST-Akt1, 1 μM Crosstide (N-terminally biotinylated synthetic peptide (KGSGSGRPRTSSFAEG) Upstate, #12-385) as substrate, 10 μl of test compound (test compounds were dissolved as 10 mM solutions in dimethylsulfoxide (DMSO) and subsequently diluted) and 100 nM ATP (including ^33P-ATP) in 100 μl of reaction buffer (50 mM HEPES, pH7,5; 3 mM MgCl2; 3 mM MnCl2; 3 μM Na-Orthovanadat; 1 mM DTT; 1 μg/ml PEG8000) for 60 minutes at 30° C. in 96 well microtiter plates. The reactions are terminated by adding 100 μl stopping buffer (5M NaCl, 35 mM EDTA pH 8.0) for 5 minutes. 190μl of the reaction mixture are transferred into streptavidin-coated Flashplates (Perkin Elmer, #SMP-103) and incubated for further 30 minutes at room temperature. The plates are washed 3 times by using washing buffer (0.9% NaCl). Relying on the incorporation of ^33P into the peptide substrate crosstide, the detection is based on the specific binding of the biotinylated peptide to the streptavidin-coated surface of scintillator-coated flash plates (NEN, USA; #SMP-103). This phosphorylation is measured by counting the plate for 60 sec. using a plate reader (Wallac Microbeta; Perkin Elmer, USA).

T3 sequence (P31749 107-480, stated change not applied): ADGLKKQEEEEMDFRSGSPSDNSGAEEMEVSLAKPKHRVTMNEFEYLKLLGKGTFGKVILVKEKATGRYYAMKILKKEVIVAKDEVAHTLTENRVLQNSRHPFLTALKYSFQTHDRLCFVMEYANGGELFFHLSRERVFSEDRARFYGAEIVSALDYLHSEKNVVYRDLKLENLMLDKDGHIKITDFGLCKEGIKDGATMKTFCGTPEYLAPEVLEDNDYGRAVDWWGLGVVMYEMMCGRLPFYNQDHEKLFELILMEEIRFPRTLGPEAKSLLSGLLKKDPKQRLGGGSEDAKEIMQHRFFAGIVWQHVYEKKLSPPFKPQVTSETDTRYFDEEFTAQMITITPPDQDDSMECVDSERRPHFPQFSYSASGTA
T4 sequence (P31749 whole entry): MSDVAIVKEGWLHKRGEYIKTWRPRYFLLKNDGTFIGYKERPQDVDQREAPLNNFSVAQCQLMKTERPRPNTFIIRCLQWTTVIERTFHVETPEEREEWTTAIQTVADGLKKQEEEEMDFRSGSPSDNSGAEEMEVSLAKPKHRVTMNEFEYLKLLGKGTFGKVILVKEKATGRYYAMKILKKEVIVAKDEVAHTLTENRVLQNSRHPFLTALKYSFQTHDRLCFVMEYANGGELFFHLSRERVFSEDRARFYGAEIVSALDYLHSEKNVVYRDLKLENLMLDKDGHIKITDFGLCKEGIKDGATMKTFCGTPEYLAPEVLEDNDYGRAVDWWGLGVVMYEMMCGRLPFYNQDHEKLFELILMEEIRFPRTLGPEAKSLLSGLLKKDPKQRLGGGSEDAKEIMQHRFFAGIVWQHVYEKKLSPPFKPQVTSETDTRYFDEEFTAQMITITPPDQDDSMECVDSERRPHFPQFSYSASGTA
T2 sequence (P31749 whole entry): as above

Compound | IC50 (MCF7 cells [1]) [µM] | IC50 (MDA-MB-468 cells [2]) [µM] | IC50 (PKA) [µM] | IC50 [4] [µM] | IC50 (GST-ΔPH-Akt1) [µM] | IC50 [6] [µM] | IC50 (MCF7 cells [3]) [µM] | IC50 (MDA-MB-468 cells [5]) [µM]
Aminomethyl-N-(4-{5-[6-(2-hydroxy-ethoxy)-naphthalen-2-yl]-pyrazolo[1,5-c]pyrimidin-7-ylamino}-phenyl)-benzamide [Example 50] | ≤ 16.9 | ≤ 13.6 | – | – | – | – | – | –
NCc1ccc(C(=O)Nc2ccc(Nc3nc(-c4ccc5cc(OCc6ccccc6)ccc5c4)cc4ccnn34)cc2)cc1 [Example 42, 4-Aminomethyl-N-{4-[5-(6-benzyloxy-naphthalen-2-yl)-pyrazolo[1,5-c]pyrimidin-7-ylamino]-phenyl}-benzamide] | – | – | > 100 | – | ≤ 1.75 | – | ≤ 16.9 | ≤ 13.6
NCc1ccc(C(=O)Nc2ccc(Nc3nc(-c4cccc5c4oc4ccccc45)cc4ccnn34)cc2)o1 [Example 38, 5-Aminomethyl-furan-2-carboxylic acid [4-(5-dibenzofuran-4-yl-pyrazolo[1,5-c]pyrimidin-7-ylamino)-phenyl]-amide] | – | – | > 100 | – | ≤ 1.75 | – | ≤ 16.9 | ≤ 13.6
NCc1ccc(C(=O)Nc2ccc(Nc3nc(-c4cccc5c4oc4ccccc45)cc4ccnn34)cc2)cn1 [Example 29, 6-Aminomethyl-N-[4-(5-dibenzofuran-4-yl-pyrazolo[1,5-c]pyrimidin-7-ylamino)-phenyl]-nicotinamide] | – | – | > 100 | – | ≤ 1.75 | – | ≤ 16.9 | ≤ 13.6
CCOc1ccc2cc(-c3cc4ccnn4c(Nc4ccc(NC(=O)c5ccc(CN)cc5)cc4)n3)ccc2c1 [Example 46, 4-Aminomethyl-N-{4-[5-(6-ethoxy-naphthalen-2-yl)-pyrazolo[1,5-c]pyrimidin-7-ylamino]-phenyl}-benzamide] | – | – | > 100 | – | ≤ 1.75 | – | ≤ 16.9 | ≤ 13.6
O=C(Nc1ccc(Nc2nc(-c3cccc4c3oc3ccccc34)cc3ccnn23)cc1)c1ccc2c(c1)CNCC2 [Example 35, 1,2,3,4-Tetrahydro-isoquinoline-7-carboxylic acid [4-(5-dibenzofuran-4-yl-pyrazolo[1,5-c]pyrimidin-7-ylamino)-phenyl]-amide] | – | – | > 100 | – | ≤ 1.75 | – | ≤ 16.9 | ≤ 13.6

The next lines start with results.

IC50 (MCF7 cells [1]) [µM] | IC50 (MDA-MB-468 cells [2]) [µM] | IC50 (PKA) [µM] | IC50 [4] [µM] | IC50 (GST-ΔPH-Akt1) [µM] | IC50 [6] [µM] | Compound | IC50 (MCF7 cells [3]) [µM] | IC50 (MDA-MB-468 cells [5]) [µM]
– | – | 6.31 to 100 | ≤ 5 | ≤ 1.75 | ≤ 4.03 | Cn1cc(-c2ccc(-c3cc4ccnn4c(Nc4ccc(NC(=O)c5ccc(CN)cc5)cc4)n3)cc2)cn1 [Example 61, 4-Aminomethyl-N-(4-{5-[4-(1-methyl-1H-pyrazol-4-yl)-phenyl]-pyrazolo[1,5-c]pyrimidin-7-ylamino}-phenyl)-benzamide] | ≤ 16.9 | ≤ 13.6
– | – | > 100 | – | ≤ 1.75 | – | NCc1cncc(C(=O)Nc2ccc(Nc3nc(-c4cccc5c4oc4ccccc45)cc4ccnn34)cc2)c1 [Example 52, 5-Aminomethyl-N-[4-(5-dibenzofuran-4-yl-pyrazolo[1,5-c]pyrimidin-7-ylamino)-phenyl]-nicotinamide] | ≤ 16.9 | ≤ 13.6
– | – | > 100 | – | ≤ 1.75 | – | COc1ccc(-c2ccc(-c3cc4ccnn4c(Nc4ccc(NC(=O)c5ccc(CN)cc5)cc4)n3)cc2)cc1 [Example 55, 4-Aminomethyl-N-{4-[5-(4′-methoxy-biphenyl-4-yl)-pyrazolo[1,5-c]pyrimidin-7-ylamino]-phenyl}-benzamide] | ≤ 16.9 | ≤ 13.6
– | – | 6.31 to 100 | – | ≤ 1.75 | – | COc1ccccc1-c1ccc(-c2cc3ccnn3c(Nc3ccc(NC(=O)c4ccc(CN)cc4)cc3)n2)cc1 [Example 56, 4-Aminomethyl-N-{4-[5-(2′-methoxy-biphenyl-4-yl)-pyrazolo[1,5-c]pyrimidin-7-ylamino]-phenyl}-benzamide] | ≤ 16.9 | ≤ 13.6
– | – | 6.31 to 100 | – | ≤ 1.75 | – | NCc1ccc(C(=O)Nc2ccc(Nc3nc(-c4ccc(-c5ccccc5F)cc4)cc4ccnn34)cc2)cc1 [Example 69, 4-Aminomethyl-N-{4-[5-(2′-fluoro-biphenyl-4-yl)-pyrazolo[1,5-c]pyrimidin-7-ylamino]-phenyl}-benzamide] | ≤ 16.9 | ≤ 13.6
– | – | > 100 | – | ≤ 1.75 | – | COCCOc1ccc2cc(-c3cc4ccnn4c(Nc4ccc(NC(=O)c5ccc(CN)cc5)cc4)n3)ccc2c1 [Example 47, 4-Aminomethyl-N-(4-{5-[6-(2-methoxy-ethoxy)-naphthalen-2-yl]-pyrazolo[1,5-c]pyrimidin-7-ylamino}-phenyl)-benzamide] | ≤ 16.9 | ≤ 13.6
– | – | > 100 | – | ≤ 1.75 | – | NCc1ccnc(C(=O)Nc2ccc(Nc3nc(-c4cccc5c4oc4ccccc45)cc4ccnn34)cc2)c1 [Example 53, 4-Aminomethyl-pyridine-2-carboxylic acid [4-(5-dibenzofuran-4-yl-pyrazolo[1,5-c]pyrimidin-7-ylamino)-phenyl]-amide] | ≤ 16.9 | ≤ 13.6
